Results as given in ChEMBL document CHEMBL1130834, “2(1H)-quinolinone derivatives as novel anti-arteriostenotic agents showing anti-thrombotic and anti-hyperplastic activities” (Bioorg Med Chem Lett, 1998).

Columns and labels:
[1] = (§1) In vitro inhibitory activity against Adenosine diphosphate (ADP) induced rabbit platelet aggregation; format: functional, Oryctolagus cuniculus
[2] = species: Oryctolagus cuniculus; experiment: In vitro inhibitory activity against collagen induced rabbit platelet aggregation; format: functional
[3] = system: Mus musculus; experiment: In vivo anti-thrombotic activity was evaluated by the inhibition of pulmonary thromboembolism model in mice at a dose of 30 mg/kg (p.o.); format: functional; settings: route oral
[4] = system: Rattus norvegicus; experiment: In vivo anti-hyperplastic activity was evaluated by the inhibition of balloon injury model in rats at a dose of 30 mg/kg (p.o.); format: functional; settings: for inhibition in vivo at 30 mg/kg: Rattus norvegicus, po
[5] = system: Mus musculus; experiment: In vivo anti-thrombotic activity was evaluated by the inhibition of pulmonary thromboembolism model in mice at a dose of 10 mg/kg (p.o.); format: functional; settings: route oral
[6] = system: Rattus norvegicus; experiment: In vivo anti-hyperplastic activity was evaluated by the inhibition of balloon injury model in rats at a dose of 10 mg/kg (p.o.); format: functional; settings: route oral
[7] = species: Oryctolagus cuniculus; experiment: as §1; format: functional

SMILES	IC50 ([1]; Oryctolagus cuniculus) [µM]	IC50 ([2]; Oryctolagus cuniculus) [µM]	inhibition in vivo at 30 mg/kg [3] [%]	inhibition in vivo at 30 mg/kg [4] [%]	inhibition in vivo at 10 mg/kg [5] [%]	inhibition in vivo at 10 mg/kg [6] [%]	IC50 [1] [µM]	IC50 [2] [µM]	Inhibition ([4]; route oral, 30 mg/kg) [%]	IC50 [7] [µM]
O=C(NCCCOc1ccc2nc(O)ccc2c1)N(C1CCCCC1)C1CC1	2.2	2.4	100	15						
O=C(NCCCOc1ccc2[nH]c(=O)ccc2c1)N(C1CC1)[C@@H]1CCCC[C@H]1O (stereo in doubt; 1p) [K-134]	2.3	2.2	100	24	88	26				
CCCCO[C@H]1CCCC[C@@H]1N(C(=O)NCCCOc1ccc2nc(O)ccc2c1)C1CC1	0.71	3.5	33	19						
CN(C(=O)NCCCOc1ccc2nc(O)ccc2c1)[C@@H]1CCCC[C@H]1O	3.9	15	18	10						
O=C(NCCCOc1ccc2nc(O)ccc2c1)N(C1CC1)[C@H]1CCCC[C@H]1O	2.3	3.3	100	19						
O=C(NCCCOc1ccc2nc(O)ccc2c1)N(C1CC1)[C@@H]1CCCCC[C@H]1O	2.6	2.8	44	0						
O=C1CCc2cc(OCCCCc3nnnn3C3CCCCC3)ccc2N1 [CILOSTAZOL]	29	31	82	12						
CCN(CCCOc1ccc2nc(O)ccc2c1)C(=O)N(C)C1CCCCC1	15	16	58	12						
CC(=O)Oc1ccccc1C(=O)O [ASPIRIN]	> 1000	> 1000	33	16						
O=C(NCCCOc1ccc2nc(O)ccc2c1)N(C1CCCCC1)[C@H]1CCCC[C@@H]1O	0.19	0.15	57	18						
O=C(NCCCOc1ccc2nc(O)ccc2c1)N(C1CCCCCCC1)[C@H]1CCCC[C@@H]1O	0.08	0.03	100	27						
O=C(NCCCOc1ccc2nc(O)ccc2c1)N(C1CC1)[C@H]1CC[C@H](O)CC1	3.8	3.1	0	7						
O=C(NCCCOc1ccc2nc(O)ccc2c1)N(C1CCCC1)[C@H]1CCCC[C@@H]1O	0.27	1.8	78	20						
O=C(NCCCOc1ccc2nc(O)ccc2c1)N(C1CC1)[C@@H]1CCC[C@@H](O)C1	3	2.8	20	0						
O=C(NCCCOc1ccc2[nH]c(=O)ccc2c1)N(C1CC1)[C@@H]1CCCC[C@H]1O (stereo in doubt; 1d) [K-134]							2.5	3.1	29	
CN(C(=O)NCCCOc1ccc2nc(O)ccc2c1)C1CCCCC1		2.7	21	15						2.6
O=C(NCCCOc1ccc2nc(O)ccc2c1)N(C1CCCCCC1)[C@H]1CCCC[C@@H]1O	0.12	0.03	69	11						
CN(C(=O)CCCOc1ccc2[nH]c(=O)ccc2c1)C1CCCCC1 [CILOSTAMIDE]	2.4	2.2	84	42						
O=C(NCCCOc1ccc2nc(O)ccc2c1)N(C1CC1)[C@H]1CCCC[C@@H]1O	2.4	2.2	100	13	29	1				
O=C(NCCCOc1ccc2nc(O)ccc2c1)N(C1CC1)[C@@H]1CCC[C@H]1O	2.5	3.5	67	23						
